What was measured:
[1] = tested on: DE cells generated from hESCs; test: Pancreatic differentiation of hESC-derived definitive endoderm cells, QPCR of marker expression (FIG. 2); type: cell-based; conditions: for expression of pancreatic (progenitor) markers: hESC derived DE cells grown 3 days; for expression of gut (CDX2) and liver markers (AFP): hESC derived DE cells
Experimental: QPCR analyses showing the expression of PDX1/HLXB9/HNF6/CDX2/AFP/SOX9/PTF1A in DE cells grown for 3 days in the presence of diverse combination of Retinoic Acid (RA), SB431542 (SB) or Activin 10 ng/ml (Act), FGF10 50 ng/ml (FGF) or SU5402 10 μM (SU), and Noggin 100 ng/ml (Nog) or BMP4 10 ng/ml.
hESCs (H9 from WiCell) and hIPSCs (BBHX8, A1ATD-1, JRO1D) (Rashid S, et al. (2010) J Clin Invest 120: 3127-3136) were grown in defined culture (Brons et al (2007) Nature 448: 191-195). Cells were passaged weekly using collagenase IV and maintained in chemically defined medium (CDM) supplemented with Activin A (10 ng/ml) and FGF2 (12 ng/ml) as described previously ((Brons et al (2007)). Differentiation was carried out as described in FIG. 1. Daily media changes were made during the entire differentiation protocol. After the DE stage (stage 1), cells were cultured in Advanced DMEM (Invitrogen) supplemented with SB-431542 (10 μM; Tocris), FGF10 (50 ng/ml; AutogenBioclear), all-trans retinoic acid (RA, 2 μM; Sigma) and Noggin (50 ng/ml; R&D Systems) for 3 days. For stage 3, the cells were cultured in Advanced DMEM+human FGF10 (50 ng/ml; AutogenBioclear), all-trans retinoic acid (RA, 2 μM; Sigma), KAAD-cyclopamine (0.25 μM; Toronto Research Chemicals) and Noggin (50 ng/ml; R&D Systems) for 3 days. For Stage 4, the cells were cultured in human KGF (FGF7) or FGF10 (50 ng/ml; R&D Systems) for 3 days. For maturation of pancreatic progenitors, cells were grown in Advanced DMEM+1% vol/vol B27 and DAPT ([…]) for 3 days and for 3 additional days in Advanced DMEM+1% vol/vol B27. Alternatively, for Stage 4, the cells were cultured in human KGF (FGF7) or FGF10 (50 ng/ml; R&D Systems) and all-trans retinoic acid (RA, 2 μM; Sigma) for 3 days. Alternatively for maturation of pancreatic progenitors, cells were grown in Advanced DMEM+1% vol/vol B27, all-trans retinoic acid (RA, 2 μM; Sigma) and DAPT ([…]) for 3 days and for 3 additional days in Advanced DMEM+1% vol/vol B27 and all-trans retinoic acid (RA, 2 μM; Sigma).
(§1) Methods for RT-QPCR were described in Touboul T et al. (2010). Hepatology 51: 1754-1765. All data are presented as average of 3 independent biological triplicates and error bars indicate standard deviation.
We recently established a defined culture system to differentiate hESCs and hIPSCs into near homogenous populations of Definitive Endoderm (DE) cells (Teo A K et al. (2011) Genes Dev 25: 238-250). Importantly, this culture system relies on a chemically defined medium (CDM) devoid of animal products, including BSA, serum, complex extra cellular matrix such as Matrigel™, or feeders cells; thereby avoiding the presence of unknown factors which could interfere with experimental outcomes. To further extend this protocol, we screened a broad number of combinations of growth factors and inhibitors of signalling pathways to identify defined culture conditions driving differentiation of DE cells into pancreatic progenitors. […] We then sought to validate and optimise the role of each of these additives.

DE cells = test: Ventral foregut / hepatic specification of DE cells, Q-PCR of hepatic markers (FIGS. 7, 8); type: cell-based, human
Source text: as §1
During the screening of the culture conditions described above, we noted that DE cells grown in the presence of Activin acquired the appearance of foetal hepatocytes with large darkened cytoplasmic space and canaliculi-like structures. […] Alternatively, unknown signaling pathways could activate the same program of differentiation.

Molecule | expression of pancreatic (progenitor) markers ([1]; QPCR, FIG. 2) | expression of gut (CDX2) and liver markers (AFP) ([1]; QPCR, FIG. 2) | expression of ventral foregut / liver bud / hepatic markers (DE cells; FIGS. 7 and 8) | further results
CC1=C(/C=C/C(C)=C/C=C/C(C)=C/C(=O)O)C(C)(C)CCC1 [RA, (2E,4E,6E,8E)-3,7-dimethyl-9-(2,6,6-trimethylcyclohexen-1-yl)nona-2,4,6,8-tetraenoic acid] | necessary for the induction of pancreatic specification | – | – | –
Cc1c[nH]c(/C=C2\C(=O)Nc3ccccc32)c1CCC(=O)O [SU5402] | did not affect the expression of pancreatic progenitor markers | augmented | decreases the expression of hepatic markers | cell death ([1]; FGF inhibition during pancreatic differentiation): significant cell death; expression of PTF1A ([1]; absence of FGF signalling, QPCR, FIG. 2): strongly reduced
NC(=O)c1ccc(-c2nc(-c3ccc4c(c3)OCO4)c(-c3ccccn3)[nH]2)cc1 [SB431542, 4-(5-Benzol[1,3]dioxol-5-yl-4-pyridin-2-yl-1H-imidazol-2-yl)-benzamide hydrate] | had the opposite effect | – | – | expression of ventral foregut / liver bud / hepatic markers (DE cells; FIGS. 7 and 8, hydrate): decreases the expression of hepatic markers; expression of ventral foregut / liver bud / hepatic markers (DE cells; FIGS. 7 and 8, listed as SB, hydrate): decreased the expression of HNF4α, SOX17, HEX and TBX3
BMP4: Bone Morphogenic Protein 4, NCBI GeneID: 652 (protein, UniProt P12644 293-408, looked up) Bone morphogenetic protein 4: SPKHHSQRARKKNKNCRRHSLYVDFSDVGWNDWIVAPPGYQAFYCHGDCPFPLADHLNSTNHAIVQTLVNSVNSSIPKACCVPTELSAISMLYLDEYDKVVLKNYQEMVVEGCGCR | significant decrease in the expression of pancreatic progenitor markers | inducing gut (CDX2) and liver markers (AFP) | – | –
Activin: dimeric polypeptide which stimulates the Activin/Nodal pathway (protein, UniProt P08476 311-426, looked up, Inhibin beta A chain) Inhibin beta A chain: GLECDGKVNICCKKQFFVSFKDIGWNDWIIAPSGYHANYCEGECPSHIAGTSGSSLSFHSTVINHYRMRGHSPFANLKSCCVPTKLRPMSMLYYDDGQNIIKKDIQNMIVEECGCS | abolished the expression of pancreatic markers | – | expressed genes marking ventral foregut | –
Noggin: BMP inhibitor (BMP antagonist protein) (protein, UniProt Q13253 28-232, looked up) Noggin: QHYLHIRPAPSDNLPLVDLIEHPDPIFDPKEKDLNETLLRSLLGGHYDPGFMATSPPEDRPGGGGGAAGGAEDLAELDQLLRQRPSGAMPSEIKGLEFSEGLAQGKKQRLSKKLRRKLQMWLWSQTFCPVLYAWNDLGSRFWPRYVKVGSCFSKRSCSVPEGMVCKPSKSVHLTVLRWRCQRRGGQRCGWIPIQYPIISECKCSC | – | – | decreases the expression of hepatic markers | HNF4 expression (DE cells; FIG. 8): moderate decrease

Source: patent US9790470B2, “In vitro pancreatic differentiation of pluripotent mammalian cells” (Cambridge Enterprise Limited, priority 2012, dated 2017)
